Measured values from a melting point compilation (Tetko et al.; mined from patent text by program, amines drawn as free bases though some values may be those of a salt).

SMILES	melting point
NC(=O)c1sc2nc(N3CCC(NCC(O)c4cc5ccccc5cn4)CC3)cc(C(F)(F)F)c2c1N (stereo unspecified)	169 to 172 °C
CCc1noc(-c2cn(-c3c[nH]c4ccccc34)cn2)n1	198 to 199 °C
O=C(O)CNC(=O)COc1nc(F)c(Cl)cc1Cl	155 to 157 °C
CCCCCCCCCCCCCCCCCc1cc(O)c(CC)c(=O)o1	101 to 102 °C
Cc1cc(C(=O)N[C@H]2CC[C@H](CCN3CCN(c4nccc5c4OCC5)CC3)CC2)on1	199 °C
CCCCCCCC[C@@H](O)C(=O)Nc1cccc2nc(SC)ccc12	119 to 120 °C
CC(C)C[C@H](O)C(=O)N[C@@H](C)C(=O)N[C@@H]1C(=O)NCCS[C@@H]1c1ccccc1	93 to 99 °C
CCCCCC1=CCC(c2cc(F)c(C(=O)O)c(F)c2)C=C1 (stereo unspecified)	65 °C
CCCCCc1nc2cnc3ccccc3c2[nH]1	142 to 143 °C
CC1CCN(c2ncc(Br)cc2C=O)C1 (stereo unspecified)	72 to 73 °C
CC(C)c1cc(Cc2cnc(N)nc2N)cc(C(C)C)c1N	177 to 180 °C
COCCCc1ccc(CNC(=O)[C@@H](COC)NC(C)=O)cc1	105 to 107 °C
CC(C)(C)OC(=O)NC1COCCCC=CC2CC2(C(=O)NS(=O)(=O)C2CC2)NC(=O)C2CC(OC(=O)c3cccc(Oc4ccccc4)c3)CN2C1=O (stereo unspecified)	123 to 125 °C
COc1ccc2c(c1F)C(=O)OC2=O	128 to 130 °C
COc1ccc2c(CCN3CC=C(c4c[nH]c5cc(F)ccc45)CC3)coc2c1	181 °C
CC(C)OC(=O)C(C(=O)Nc1ccc(C(F)(F)F)cc1)=C1SCS1	151 to 152 °C
CCOc1cc(-c2nnc3c4ccccc4c(OCc4ncnn4C)nn23)no1	223 to 225 °C
C=C(F)C(=O)Oc1c(I)cc(C(F)(F)F)cc1I	93 to 95 °C
O=S(=O)(c1ccccc1)N1CCC(C(O)(c2ccc(F)cc2)c2ccc(F)cc2)CC1	142 to 144 °C
CC1C=CC(=O)OC1=O (stereo unspecified)	70 to 72 °C
Cn1nc2ccc(Cl)nn2c1=O	176 to 177 °C
CC(=O)Nc1ccc(OC(=O)C=CC=C(C)C=CC=C(C)C=CC2=C(C)CCCC2(C)C)cc1	219 to 222 °C
CC(C)(Oc1c(Br)cc(-c2c3ccccc3c(Br)c3sc4ccccc4c23)cc1Br)C(=O)O	197 to 199 °C

SMILES	melting point
CC1(C)Oc2ccc(S(C)(=O)=O)cc2[C@@H](N2CCCS2(=O)=O)[C@@H]1O (relative stereo)	220 to 221 °C
O=C(O)C=Cc1ccc(Cn2ccnc2)c(Cl)c1	227 to 229 °C
CCCN1CCC(O)(c2cc(F)cc(F)c2)C1 (stereo unspecified)	117 to 118 °C
O=C(NO)c1ccc2c(c1)CCN(C(=O)NCCOc1ccccc1)C2	120 to 123 °C
CCC(=NOC)C(=NO)C(=O)NC	168 to 170 °C
Cc1cn(CCCN2C(=O)c3ccc(Cl)c(Cl)c3C2=O)cn1	147 to 151 °C
Cc1cc(=O)n2c3c(cc(C(O)(C(F)(F)F)C(F)(F)Cl)cc13)CC2 (stereo unspecified)	160 to 164 °C
NC(=NCC(F)(F)F)Nc1cncc(Cl)n1	139 to 140 °C
Cc1c(C)c2c(c(C)c1N)OC(C)(C)C2c1ccc(C(C)C)cc1 (stereo unspecified)	120 to 121 °C
CN(C)CCC(Cc1ccccc1C(=O)O)c1ccccc1 (stereo unspecified)	152 to 154 °C
COc1ccc(N2C(=O)C3=C(SCCO3)C2=O)nn1	157 °C
O=C(O)C1=CSC2C(=Cc3cn4c(n3)CCCCC4)C(=O)N12 (stereo unspecified)	> 250 °C
CCC1CC2(C)C(O)CCC2C2CCc3cccc(O)c3C12 (stereo unspecified)	155 to 157 °C
Cc1cc(-c2noc(C(F)(F)F)n2)cc(C)c1OCCCc1ccc(CO)nc1	92 to 94 °C
O=C(O)C1CCN(c2ncc(NS(=O)(=O)c3ccc(Br)cc3)c(NCc3ccccc3)n2)CC1	136 to 138 °C
O=C(O)C(=O)c1ccc(C(F)(F)F)cc1	63 to 65 °C
CSC(=N[N+](=O)[O-])NCc1ccc(Cl)nc1	140 to 142 °C
Nc1nc(Cl)nc(NC2CC2)n1	188 to 189 °C
c1cc(-c2ccc3c(c2)OCO3)cc(Nc2ccc3c(c2)OCCO3)n1	116 to 118 °C
CCOCn1c(N)c(C#N)c2c(N)ncnc21	229 to 230 °C
CNS(=O)(=O)c1csc(C(=O)OC)c1	142 °C
COc1cc(-c2ncnc(C)c2Cl)c(F)cc1Cl	136 to 140 °C
C=CCNC(=S)C(CN1CCOCC1)c1ccccn1 (stereo unspecified)	84 to 86 °C

SMILES	melting point
c1ccc2c(CCCCN3CCc4c(sc5ccccc45)C3)c[nH]c2c1	113 to 115 °C
O=C(O)[C@H]1CC[C@H](Nc2ncc3ncnc(Nc4ccc(F)c(Cl)c4)c3n2)CC1	> 290 °C
COc1ccc(S(=O)(=O)N2C(=O)C(OC(=O)N3CCN(c4ccncc4)CC3)(c3ccccc3OC(C)C)c3cc(Cl)ccc32)c(OC)c1 (stereo unspecified)	160 to 164 °C
C=C(CC)c1cn(-c2c(Cl)cc(C(F)(F)F)cc2Cl)nc1C#N	104 to 105 °C
C=CCN1C(C)(C)CC(Oc2nc(OC3CC(C)(C)N(CC=C)C(C)(C)C3)nc(OC3CC(C)(C)N(CC=C)C(C)(C)C3)n2)CC1(C)C	218 to 219 °C
CC(Cc1c[nH]c2ccc(F)cc12)C(=O)O (stereo unspecified)	112 to 113 °C
O=C1CCC2C=C(c3cccnc3)C(F)=CC2N1 (stereo unspecified)	228 °C
CSc1ncccc1C(=O)CC(=O)C1CC1	87 to 89 °C
Cc1[nH]c2ccccc2c1[C@H]1CC[C@@H](N2CCN(c3cccc4[nH]ccc34)CC2)CC1	279 to 280 °C
CNCCCc1nc2ccccc2[nH]1	134 to 136 °C
COc1cc(OC)c2c(c1)N(C)C(c1cc(C)c(O)c(C)c1)N=C2 (stereo unspecified)	188 to 189 °C
CC(CS)C(=O)N(CC(=O)O)C1CCCCC1 (stereo unspecified)	158 to 160 °C
CC(C)(C)c1cc(Cn2nc(CCCCCCCCc3nn(Cc4cc(C(C)(C)C)c(O)c(C(C)(C)C)c4)c(=O)o3)oc2=O)cc(C(C)(C)C)c1O	142 °C
OC1(c2ccc(F)cc2)CCC2CNCCC2C1 (stereo unspecified)	174 to 175 °C
CCNC(=O)c1c([Si](C)(C)C)sc(C)c1C	90 to 94 °C
Cc1nc(C)c(Cl)c(NCc2nccc(SCCCCBr)c2C)n1	127 to 128 °C
CCC(CC)c1ccc(Cl)c2nc3n(c12)CC(C)N3c1cnc(N(C)C)cc1C (stereo unspecified)	204 to 206 °C
CCn1cc(Cl)nc(S(=O)(=O)CC(=O)Nc2ccccc2)c1=O	178 to 180 °C
FC(F)(F)Oc1ccc(-c2ncc(CBr)cn2)cc1	80 to 81 °C
CSc1ccc(C(CC2CCCO2)C(=O)O)cc1 (stereo unspecified)	105 to 107 °C
C=CCCC(C#N)(C#N)Cc1ccc(OCC=C)cc1	77.7 °C

Continued, values first:

melting point	SMILES
50 to 55 °C	CC(=O)C(=O)N1C(C(=O)OCc2ccccc2)CC2CCCCC21 (stereo unspecified)
157 °C	Nc1nccnc1C(=O)NCCN1CCC(Nc2nc3ccccc3n2Cc2ccc(F)cc2)CC1
60 to 63 °C	Clc1ccc2c(c1)CCC(c1cccnc1)O2 (stereo unspecified)
165 °C	O=C(NN1CCCCC1)c1nc(-c2ccc(Cl)cc2Cl)c(-c2ccc(Cl)cc2)o1
158 to 161 °C	Cc1ccc2cccc(OCc3cccc(N(C)C(=O)CN4C(=O)c5ccccc5C4=O)c3C)c2n1
243 to 251 °C	CC(=O)c1c(-c2ccc(O)cc2)oc2ccc(O)cc12
128 to 130 °C	CC(=O)c1ccc(OCCOc2ccc3ccccc3c2)cc1C
169 to 171 °C	Cc1noc(CC(=O)N(N)C(=O)c2ccco2)n1
69 to 70 °C	CC(COc1ccccc1C(=O)C(=O)c1ccccc1OCC(C)CN(C)C)CN(C)C (stereo unspecified)
135 °C	O=C(NC(Cc1ccccc1)C(=O)O)OCc1ccc(CCCc2ccccc2)cc1 (stereo unspecified)
165 to 166 °C	COC(=O)C1=CC(=O)CC(c2ccc(Cl)c(OC)c2F)N1 (stereo unspecified)
110 °C	Cc1ccc(Oc2cccc(NC(=O)c3ccn4c3CSC4c3cccnc3)c2)cc1 (stereo unspecified)
55 °C	CCCN(c1nc(-c2ccc(OC)cc2Cl)c(C)s1)c1cc(-c2ccccc2C)ccc1OC
110 to 112 °C	O=C(O)COc1cccc(CCCOC(c2ccccc2)c2ccccc2)c1
254 °C	O=C(Nc1ccc(-c2ccc(C(=O)N3CCN4CCC3CC4)o2)cc1)c1ccccc1
145 to 147 °C	COC(=O)c1cccc2c1ccn2S(=O)(=O)c1ccc(C)cc1
87 to 88 °C	CCOc1nn(-c2ccc(C(F)(F)F)cn2)cc1CCCOc1c(CCC(=O)O)cccc1OC

melting point	SMILES
160 to 162 °C	CCOC(=O)c1[nH]c2ccc(Cl)cc2c1Sc1ccccc1
280 °C	COc1ccc(-c2[nH]nc3c2C(=O)c2c(NC=O)cccc2-3)cc1
179 to 181 °C	Nc1ccc(C(=O)c2c(F)cccc2F)c(N)n1
250 °C	CCNC1=C(c2ccc(O)cc2)C(=O)c2cc(O)ccc21
150 °C	CC(C(=O)O)c1ccc(C(=O)c2cc3ccsc3s2)cc1 (stereo unspecified)
116 to 118 °C	CCOC(=O)C1C(OC)C(=O)N1c1ccc(OC)cc1 (stereo unspecified)
76 to 77 °C	COc1cc(C=C(Br)Br)cc(OC)c1OCc1ccccc1
225 to 227 °C	Cc1cccc(-c2c(CC(=O)Nc3ccc(F)cc3C(F)(F)F)c(=O)oc3cc4c(cc23)CCC4O)c1 (stereo unspecified)
222 °C	COc1ccc(-c2ccc3c(C(=O)O)cccc3c2)cc1C12CC3CC(CC(C3)C1)C2
192 to 193 °C	CCOC(=O)Cc1sc(NC(=O)Nc2ccccc2)nc1-c1ccc(Cl)cc1
103 to 105 °C	CC(=O)OC1C(C)OC(Oc2ncn(Cc3ccc([N+](=O)[O-])cc3)c2C(N)=O)C(OC(C)=O)C1OC(C)=O (stereo unspecified)
205 to 207 °C	O=C(NCc1cccc(OCCOc2nc[nH]n2)c1)c1nc2ccc(F)c(F)c2c(=O)[nH]1
95 to 100 °C	CC(=O)Oc1cccc2oc(C(=O)OCc3ccc(Cl)cc3)c(C)c12
178 to 179 °C	CCc1cc(-c2cccnc2)nn1-c1ccc(NC(=O)c2cc3ccccc3n2C)cc1
114 to 115 °C	COc1cc(CCCCN(C)Cc2ccc(OC)c(OC)c2)ccc1NC(=O)c1cccc2c(=O)c3cccc(OC)c3[nH]c12
271 to 272 °C	N#Cc1c(-c2ccc(Cl)cc2)c(-c2ccc(Cl)cc2)n[nH]c1=O
75 to 76 °C	C=C(C(=O)OC)C(=O)c1ccc(OC)cc1
